Laboratory results taken from US20090258052A1, “COMPOUNDS AND METHODS FOR ALTERING BONE GROWTH” (OsteoGeneX Inc., priority 2008, published 2009).

How the values were obtained:
SOST (Sclerostin) = experiment: Assay for identification of SOST antagonists promoting bone growth (J Bone Miner Res 2006, 21(11), 1738-1749)
Description: Compounds useful in the methods of the present invention can be identified via a variety of methods known to one of skill in the art. Several exemplary methods for identifying such antagonists are described herein, including cell-based and in vitro techniques (Journal of Bone and Mineral Research 2006, 21(11), 1738-1749). A general method of identifying SOST antagonists involves evaluating the effects of antagonist candidates on bone formation under controlled conditions. Preferably bone formation is determined using micro-CT techniques on live animals. Preferred animals include rodents, more preferred are primates. Femur, tibia and vertebrae bones are particularly useful subjects for such study.
Briefly, the test animal is treated with a predetermined dose of a SOST antagonist candidate. A control animal is treated with a control solution, preferably a non-irritating buffer solution or other carrier.
Once the dosing schedule has been completed, both test and control animals are examined to determine the quantity of bone formation present. This can be accomplished by any suitable method, but is preferably performed on live animals to analyze the bone mineral content. Methods for micro-CT examination of bones in animals are well known in the art. […] Where necessary, levels of bone formation can be calculated by determining the volume of bone formation present in each animal. […]

C57BL/6 mice = experiment: Bone growth study in mice, daily i.p. for 30 days; serum osteocalcin by EIA Elisa; assay type: in vivo; conditions: four month old male C57BL/6 mice
Experimental: Four month old male C57BL/6 mice were treated daily with saline vehicle or sclerostin inhibitors at low, mid, or high doses (via i.p) for 30 days. Study endpoints included a biochemical marker of bone formation, osteocalcin measured by EIA Elisa, and measurement of trabecular bone volume by mico-CT analysis on both the proximal tibia and L5 vertebra.

## O=c1[nH]nc(SCCO)c(=O)[nH]1 [OGX-21]
SOST (Sclerostin); FIG. 1
  modulation of the Wnt pathway: modulating the Wnt pathway
SOST (Sclerostin); identification assay
  promotion of bone growth: promoting bone growth
C57BL/6 mice; 10 mg/kg (A)
  percent increase in serum osteocalcin over baseline: 2%
C57BL/6 mice; 20 mg/kg (B)
  percent increase in serum osteocalcin over baseline: 28%
C57BL/6 mice; 30 mg/kg (C)
  percent increase in serum osteocalcin over baseline: 15%
